Data from patent US8258114B2, “Modulation of glucose-6-phosphatase translocase expression” (Isis Pharmaceuticals, Inc., priority 2004, dated 2012).
Oligonucleotides are written 5' to 3', each unit as a sugar letter and its base; * is a phosphorothioate linkage, no mark a phosphodiester; rarer units and linkages stand in square brackets, end groups in braces. Plain capitals give the bases only. e = 2'-O-(2-methoxyethyl) (MOE); [5mC] = 5-methylcytosine; d = 2'-deoxy (DNA)

Assays:
[1] = test system: human glucose-6-phosphatase translocase mRNA; experiment: Antisense inhibition of human glucose-6-phosphatase translocase mRNA in T-24 cells, real-time PCR (Table 4); type: cell-based; details: 100 nM oligonucleotide, LIPOFECTIN, mRNA by real-time PCR
Description: The transitional cell bladder carcinoma cell line T-24 was obtained from the American Type Culture Collection (ATCC) (Manassas, Va.). T-24 cells were routinely cultured in complete McCoy's 5A basal media (Invitrogen Life Technologies, Carlsbad, Calif.) supplemented with 10% fetal bovine serum (Invitrogen Life Technologies, Carlsbad, Calif.). Cells were routinely passaged by trypsinization and dilution when they reached approximately 90% confluence. Cells were seeded into 96-well plates (Falcon-Primaria #3872) at a density of approximately 4000-6000 cells/well for use in oligomeric compound transfection experiments. When cells reached 65-75% confluency, they were treated with oligonucleotide. […] This transfection mixture was incubated at room temperature for approximately 0.5 hours. For cells grown in 96-well plates, wells were washed once with 100 μL OPTI-MEMTM-1 and then treated with 130 μL of the transfection mixture. Cells grown in 24-well plates or other standard tissue culture plates are treated similarly, using appropriate volumes of medium and oligonucleotide. Cells are treated and data are obtained in duplicate or triplicate. After approximately 4-7 hours of treatment at 37° C., the medium containing the transfection mixture was replaced with fresh culture medium. Cells were harvested 16-24 hours after oligonucleotide treatment. […] Prior to quantitative PCR analysis, primer-probe sets specific to the target gene being measured were evaluated for their ability to be “multiplexed” with a GAPDH amplification reaction. After isolation the RNA is subjected to sequential reverse transcriptase (RT) reaction and real-time PCR, both of which are performed in the same well. RT and PCR reagents were obtained from Invitrogen Life Technologies (Carlsbad, Calif.). […] The RT reaction was carried out by incubation for 30 minutes at 48° C. Following a 10 minute incubation at 95° C. to activate the PLATINUM® Taq, 40 cycles of a two-step PCR protocol were carried out: 95° C. for 15 seconds (denaturation) followed by 60° C. for 1.5 minutes (annealing/extension). Gene target quantities obtained by RT, real-time PCR were normalized using either the expression level of GAPDH, a gene whose expression is constant, or by quantifying total RNA using RiboGreenTM (Molecular Probes, Inc. Eugene, Oreg.). GAPDH expression was quantified by RT, real-time PCR, by being run simultaneously with the target, multiplexing, or separately. Total RNA was quantified using RiboGreenTM RNA quantification reagent (Molecular Probes, Inc. Eugene, Oreg.). A series of oligomeric compounds was designed to target different regions of human glucose-6-phosphatase translocase, using published sequences cited in Table 1. All compounds in Table 4 are chimeric oligonucleotides (“gapmers”) 20 nucleotides in length, composed of a central “gap” region consisting of 10 2'-deoxynucleotides, which is flanked on both sides ([NT]) by five-nucleotide “wings”. The wings are composed of 2'-O-(2-methoxyethyl) nucleotides, also known as 2'-MOE nucleotides. The internucleoside (backbone) linkages are phosphorothioate throughout the oligonucleotide. All cytidine residues are 5-methylcytidines. The compounds were analyzed for their effect on gene target mRNA levels by quantitative real-time PCR as described in other examples herein, using the following primer-probe set designed to hybridize to human glucose-6-phosphatase translocase: Forward primer: [NT] (incorporated herein as SEQ ID NO: 24) Reverse primer: [NT] (incorporated herein as SEQ ID NO: 25) And the PCR probe was: […] (incorporated herein as SEQ ID NO: 26), where FAM is the fluorescent dye and TAMRA is the quencher dye. Data are from experiments in which T-24 cells were treated with 100 nM of the antisense oligonucleotides of the present invention using LIPOFECTINTM. A reduction in expression is expressed as percent inhibition in Table 4. If present, “N.D.” indicates “not determined”. The control oligomeric compound used was SEQ ID NO: 11. […]

[2] = test system: human glucose-6-phosphatase translocase mRNA; experiment: Antisense inhibition of human glucose-6-phosphatase translocase mRNA in HepG2 cells (Table 11); type: cell-based; design: concentration or dose not given beside the values; details: LIPOFECTIN, mRNA by real-time PCR
Procedure, shortened: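 HepG2 cells at 65-75% confluency transfected with 2′-MOE gapmer oligonucleotides using LIPOFECTIN (2.5 or 3 μg/mL per 100 nM oligo) for 4-7 h and harvested 16-24 h later. Target mRNA measured by RT real-time PCR and normalized to GAPDH or RiboGreen total RNA.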

[3] = test system: glucose-6-phosphatase translocase mRNA; experiment: Target reduction in liver: rat dose-response study (Table 12); type: in vivo; details: Sprague-Dawley rats; for % Inhibition, target reduction in liver: three weeks
Description: (§1) Each treatment group was comprised of 4 animals.
At the end of the treatment period, animals were sacrificed and target reduction in liver was measured by real-time PCR as described in other examples herein. Results are shown in Table 12 as the average percent reduction in glucose-6-phosphatase translocase levels as compared to saline treated control.

[4] = Plasma glucose, cholesterol and triglycerides in normal Sprague-Dawley rats (Table 14); type: in vivo, rat; design: plasma GLUCOSE WK 0 / plasma GLUCOSE WK 3: unit not given beside the values
Description: as §1
To further assess the physiological effects resulting from inhibition of target mRNA, the rats were evaluated at the beginning (Wk 0) and at the end (Wk 3) of the treatment period for plasma glucose, plasma cholesterol, and plasma triglyceride levels. Triglycerides and cholesterol were measured by routine clinical analyzer instruments (e.g. Olympus Clinical Analyzer, Melville, N.Y.). Glucose levels were measured using a glucose analyzer, for example a YSI glucose analyzer (YSI Scientific, Yellow Springs, Ohio). Results are presented in Table 14 as the average level of plasma glucose, plasma cholesterol (CHOL), or plasma triglycerides (TRIG) measured per treatment group.

[5] = Body weight and tissue weights of normal Sprague-Dawley rats (Table 13); details: for Spleen weight / Fat weight / Kidney weight / Liver weight: end of study
Description: For three weeks, male Sprague-Dawley rats were injected twice-weekly with doses of 12.5 mg/kg, 25 mg/kg, or 50 mg/kg of ISIS 145760, ISIS 359543, or ISIS 366228. Each treatment group was comprised of 4 animals. Animals which received twice weekly injections of saline served as controls.
Body weight was monitored throughout the study period. […] Tissue weights were also measured at the end of the study.

AGGGTGCTCTCCTCCTTCAA (eA*eG*eG*eG*eT*dG*d[5mC]*dT*d[5mC]*dT*d[5mC]*d[5mC]*dT*d[5mC]*d[5mC]*eT*eT*e[5mC]*eA*eA; antisense) [ISIS 194855]
% Inhib [1]: 57%
% Inhib [2]: 66%

CCACCTATATCCAACTGCGC (e[5mC]*e[5mC]*eA*e[5mC]*e[5mC]*dT*dA*dT*dA*dT*d[5mC]*d[5mC]*dA*dA*d[5mC]*eT*eG*e[5mC]*eG*e[5mC]; antisense) [ISIS 194839]
% Inhib [1]: 83%
% Inhib [2]: 75%

CCCACTGACAAACTTGCTGA (e[5mC]*e[5mC]*e[5mC]*eA*e[5mC]*dT*dG*dA*d[5mC]*dA*dA*dA*d[5mC]*dT*dT*eG*e[5mC]*eT*eG*eA; antisense) [ISIS 194850]
% Inhib [1]: 88%
% Inhib [2]: 38%

GGTGCGGATGTTTCGTAGGA (eG*eG*eT*eG*e[5mC]*dG*dG*dA*dT*dG*dT*dT*dT*d[5mC]*dG*eT*eA*eG*eG*eA; antisense) [ISIS 194826]
% Inhib [1]: 76%

GGTTGCCAGGATAGGGCCCA (eG*eG*eT*eT*eG*d[5mC]*d[5mC]*dA*dG*dG*dA*dT*dA*dG*dG*eG*e[5mC]*e[5mC]*e[5mC]*eA; antisense) [ISIS 194846]
% Inhib [1]: 70%

GTCAAGGGTCATTAGTGCCC (eG*eT*e[5mC]*eA*eA*dG*dG*dG*dT*d[5mC]*dA*dT*dT*dA*dG*eT*eG*e[5mC]*e[5mC]*e[5mC]; antisense) [ISIS 194854]
% Inhib [1]: 80%

GTGCTTGGCAATGGTGCTGA (eG*eT*eG*e[5mC]*eT*dT*dG*dG*d[5mC]*dA*dA*dT*dG*dG*dT*eG*e[5mC]*eT*eG*eA; antisense) [ISIS 359543]
% Inhib [2]: 74%
% Inhibition, target reduction in liver ([3]; 12.5 mg/kg twice weekly): 50%
% Inhibition, target reduction in liver ([3]; 25 mg/kg twice weekly): 62%
% Inhibition, target reduction in liver ([3]; 50 mg/kg twice weekly): 77%
target mRNA levels in rat liver (in words) ([3]; 12.5 to 50 mg/kg): effective in reducing target mRNA levels in rat liver in a dose-dependent manner
plasma cholesterol (CHOL) WK 3 ([4]; 12.5 mg/kg twice weekly, saline 58): 57
plasma triglycerides (TRIG) WK 0 ([4]; 12.5 mg/kg twice weekly, saline 69): 69
plasma cholesterol (CHOL) WK 0 ([4]; 12.5 mg/kg twice weekly, saline 74): 80
plasma GLUCOSE WK 0 ([4]; 12.5 mg/kg twice weekly, saline 135): 138
plasma GLUCOSE WK 3 ([4]; 12.5 mg/kg twice weekly, saline 139): 165
plasma triglycerides (TRIG) WK 3 ([4]; 12.5 mg/kg twice weekly, saline 140): 61
plasma GLUCOSE WK 0 ([4]; 25 mg/kg twice weekly): 138
plasma GLUCOSE WK 3 ([4]; 25 mg/kg twice weekly): 154
plasma cholesterol (CHOL) WK 0 ([4]; 25 mg/kg twice weekly): 82
plasma cholesterol (CHOL) WK 3 ([4]; 25 mg/kg twice weekly): 57
plasma triglycerides (TRIG) WK 0 ([4]; 25 mg/kg twice weekly): 62
plasma triglycerides (TRIG) WK 3 ([4]; 25 mg/kg twice weekly): 37
plasma GLUCOSE WK 0 ([4]; 50 mg/kg twice weekly): 135
plasma GLUCOSE WK 3 ([4]; 50 mg/kg twice weekly): 136
plasma cholesterol (CHOL) WK 0 ([4]; 50 mg/kg twice weekly): 87
plasma cholesterol (CHOL) WK 3 ([4]; 50 mg/kg twice weekly): 54
plasma triglycerides (TRIG) WK 0 ([4]; 50 mg/kg twice weekly): 69
plasma triglycerides (TRIG) WK 3 ([4]; 50 mg/kg twice weekly): 19
plasma triglycerides (in words) ([4]; 12.5 to 50 mg/kg, three weeks): dose-dependent reductions in plasma triglycerides
Spleen weight ([5]; 12.5 mg/kg twice weekly, saline 0.7): 0.9 grams
Fat weight ([5]; 12.5 mg/kg twice weekly, saline 1.8): 1.4 grams
Kidney weight ([5]; 12.5 mg/kg twice weekly, saline 3): 3 grams
Liver weight ([5]; 12.5 mg/kg twice weekly, saline 15): 15 grams
Body weight ([5]; 12.5 mg/kg twice weekly, week 3, saline 290): 285 grams
Fat weight ([5]; 25 mg/kg twice weekly): 1.3 grams
Kidney weight ([5]; 25 mg/kg twice weekly): 3 grams
Liver weight ([5]; 25 mg/kg twice weekly): 16 grams
Spleen weight ([5]; 25 mg/kg twice weekly): 1.1 grams
Body weight ([5]; 25 mg/kg twice weekly, week 3): 295 grams
Fat weight ([5]; 50 mg/kg twice weekly): 1.0 grams
Kidney weight ([5]; 50 mg/kg twice weekly): 3 grams
Liver weight ([5]; 50 mg/kg twice weekly): 13 grams
Spleen weight ([5]; 50 mg/kg twice weekly): 1.4 grams
Body weight ([5]; 50 mg/kg twice weekly, week 3): 277 grams
Increases in body weights (in words) ([5]; 12.5 to 50 mg/kg, throughout the study): comparable to the increases in body weight observed for saline-treated control animals

TAACCAGTGGAGAGCACCCA (eT*eA*eA*e[5mC]*e[5mC]*dA*dG*dT*dG*dG*dA*dG*dA*dG*d[5mC]*eA*e[5mC]*e[5mC]*e[5mC]*eA; antisense) [ISIS 194833]
% Inhib [1]: 60%

TAGTGGTACAGTGAGAATGA (eT*eA*eG*eT*eG*dG*dT*dA*d[5mC]*dA*dG*dT*dG*dA*dG*eA*eA*eT*eG*eA; antisense) [ISIS 194848]
% Inhib [1]: 81%

TCCTTGTCCAAAGGGATCTC (eT*e[5mC]*e[5mC]*eT*eT*dG*dT*d[5mC]*d[5mC]*dA*dA*dA*dG*dG*dG*eA*eT*e[5mC]*eT*e[5mC]; antisense) [ISIS 194842]
% Inhib [1]: 57%

TCTCTTCCACCAATGATGGC (eT*e[5mC]*eT*e[5mC]*eT*dT*d[5mC]*d[5mC]*dA*d[5mC]*d[5mC]*dA*dA*dT*dG*eA*eT*eG*eG*e[5mC]; antisense) [ISIS 194841]
% Inhib [1]: 41%

TGACTGCAGAAGTTTCCTGT (eT*eG*eA*e[5mC]*eT*dG*d[5mC]*dA*dG*dA*dA*dG*dT*dT*dT*e[5mC]*e[5mC]*eT*eG*eT; antisense) [ISIS 194838]
% Inhib [1]: 91%
% Inhib [2]: 42%

TGACTGTCCTTTCTCCTGGA (eT*eG*eA*e[5mC]*eT*dG*dT*d[5mC]*d[5mC]*dT*dT*dT*d[5mC]*dT*d[5mC]*e[5mC]*eT*eG*eG*eA; antisense) [ISIS 194834]
% Inhib [1]: 71%

TGCCTACAAGGCCCCCAACT (eT*eG*e[5mC]*e[5mC]*eT*dA*d[5mC]*dA*dA*dG*dG*d[5mC]*d[5mC]*d[5mC]*d[5mC]*e[5mC]*eA*eA*e[5mC]*eT; antisense) [ISIS 194849]
% Inhib [1]: 65%

TGCGCCTAGTGGTACAGTGA (eT*eG*e[5mC]*eG*e[5mC]*d[5mC]*dT*dA*dG*dT*dG*dG*dT*dA*d[5mC]*eA*eG*eT*eG*eA; antisense) [ISIS 194829]
% Inhib [1]: 82%

TGTCCTTTCTCCTGGATAAG (eT*eG*eT*e[5mC]*e[5mC]*dT*dT*dT*d[5mC]*dT*d[5mC]*d[5mC]*dT*dG*dG*eA*eT*eA*eA*eG; antisense) [ISIS 194852]
% Inhib [1]: 44%

TGTTTCGTAGGAGGAAGAAG (eT*eG*eT*eT*eT*d[5mC]*dG*dT*dA*dG*dG*dA*dG*dG*dA*eA*eG*eA*eA*eG; antisense) [ISIS 194857]
% Inhib [1]: 44%

TTCCTGCTTGCCGCTCTCAC (eT*eT*e[5mC]*e[5mC]*eT*dG*d[5mC]*dT*dT*dG*d[5mC]*d[5mC]*dG*d[5mC]*dT*e[5mC]*eT*e[5mC]*eA*e[5mC]; antisense) [ISIS 194845]
% Inhib [1]: 50%
